Data set [1] concerns human neutrophil elastase (Sigma Aldrich), 150 nM. Briefly: human neutrophil elastase in buffer (0.1 M Tris HCl, 500 mM NaCl, 0.05% Triton X-100, 20 mM CaCl2, pH 7.5); non-fibrillated peptides. The note with it: 37 °C, up to 30 min.
The nature of data set [2]: Transmission electron microscopy of fibrils. The note with it: 1.0 mg/mL in PBS pH 7.4, TEM, uranyl acetate stain. In kind it is physicochemical. On the procedure: (§1) All peptides were dissolved in Eppendorf Low Retention Tubes in 1.0 mL of PBS pH 7.4. The concentration of the solutions of peptides was 1.0 mg/mL. The peptides were incubated at 37 °C with constant orbital shaking. Aliquots for the evaluation of the fibrillization process were taken before incubation and after 1, 2, 3, 6, 14, and 21 days or only after 7 days, depending on the experiments.
Peptide samples (5 µL) were applied on a glow-discharged carbon-coated copper grid (400 mesh). After 1 min of adsorption, excess liquid was removed using filter paper, and the samples were stained with 2% (v/v) aqueous uranyl acetate. The samples were examined with a TECNAI SPIRIT BIO TWIN FEI (FEI Company, Hillsboro, OR, USA) at 120 kV, with nominal magnifications between 11,500 and 39,000. The assay was performed for samples before (after dissolution) and after 3 days of incubation.

The test system of a further data set is HaCaT keratinocytes. Kind of data set: XTT proliferation assay, keratinocytes. The class given is cell-based, human. The note with it: for inhibition of proliferation (XTT), in words: up to 25 µg/mL. On the procedure:
(§2) Immortalized human HaCaT [69, 70] keratinocytes (DKFZ, Heidelberg, Germany) and the human dermal fibroblast cell line 46BR.1N (ECACC, Sigma Aldrich, St. Louis, MO, USA) were used in the study. Cells were routinely grown in culture flasks (growth surface area 25 cm^2) in Dulbecco’s modified Eagle medium (DMEM, Sigma Aldrich, St. Louis, MO, USA), with 4500 mg/L of glucose, 584 mg/L of L-glutamine, sodium pyruvate, and sodium bicarbonate, supplemented with 10% FBS and 100 units/mL of penicillin and 100 μg/mL of streptomycin (Sigma Aldrich, St. Louis, MO, USA), under a humidified atmosphere with 5% CO2 at 37 °C. Medium was changed every 2–3 days.
(§3) Lactate dehydrogenase (LDH) activity in cell culture supernatants (Takara, Japan, cat. No. MK401) was measured to determine the cytotoxicity of the tested compounds, and the XTT assay was used to evaluate their effect on cell proliferation. Both tests were performed as previously described according to manufacturers’ instructions. Briefly, cells were seeded into 96-well plates, at a density of 5000 cells per well, in DMEM supplemented with 10% FBS. After 24 h the medium was exchanged for serum-free DMEM containing appropriate concentrations of the tested compounds. Supernatants for LDH analysis were collected after 48 h of incubation. The XTT assay was performed after 48 and 72 h of incubation.
(§4) For the analysis of the effect of the peptide fibrils on skin cells, the experiment was performed as described, but the cells were stimulated with 10 µL of the fibrils (50 µg/mL) and incubated for 48 h, when the LDH and XTT assay were then performed.

A short description of data set [3]: Thioflavin T fluorescence assay. In kind it is physicochemical. The note with it: 1.0 mg/mL in PBS pH 7.4, 37 °C, orbital shaking; ThT excitation 420 nm, emission 482 nm. On the procedure: as §1
Ten microliters of peptide solution incubated under fibrillization conditions (see Fibril preparation) were mixed with 10 µL of 1.5 mM ThT in water and 90 µL of PBS pH 7.4. The fluorescence was measured on a Tecan Infinite 200Pro (Tecan Group Ltd., Männedorf, Switzerland) spectrofluorometer in 96-well plates (Costar Black®), with excitation wavelength set at 420 nm and emission in the range of 455 to 600 nm.

For data set [4], the system named is 46BR.1N fibroblasts. Briefly: XTT proliferation assay, fibroblasts. The class given is cell-based, human. The note with it: for inhibition of proliferation (XTT), in words: up to 25 µg/mL. Here is the method:
as §2, §3, §4
For orientation: Formazan colour is commonly taken as a measure of viable cells.

Data set [5] in a line: Circular dichroism over incubation. In kind it is physicochemical. The note with it: 1.0 mg/mL in PBS pH 7.4, 37 °C with agitation, up to 14 days; centrifuged clear solution, far-UV 195-250 nm. On the procedure:
Circular dichroism spectra were recorded on a Jasco J-815 spectropolarimeter (Jasco, Victoria, BC, Canada). Far-UV spectra (195–250 nm) were registered for all peptides dissolved in PBS pH 7.4 at a concentration of 1.0 mg/mL and incubated at 37 °C with agitation. Spectra were recorded before and after 1,2, 3, 7, 10 and 14 days of incubation. All spectra were corrected for the buffer signal. The CD spectra were recorded three times, using a 0.2 mm cell.
Background: Circular dichroism is the unequal absorption of left and right circularly polarised light.

Data set [6] in a line: Peptide stability in human plasma (TCA assay). In kind it is in vitro ADME. The note with it: human plasma (EDTA), 37 °C, 300 rpm, TCA 3% precipitation, RP-HPLC UV 223 nm, at least triplicates. On the procedure:
Peptide stability tests were performed according to a TCA stability assay based on the method used by Nguyen et al.. Peptides were dissolved in water, mixed with human plasma* to a final concentration of 1.0 mg/mL, and incubated at 37 °C with agitation (300 rpm, Thermomixer, Eppendorf AG, Hamburg, Germany). After 0, 1, 2, 3, 6 and 24 h, 80 μL of the solution was taken and mixed with 15% TCA to obtain a final concentration of 3% (v/v). The samples were incubated in ice for 10 min and centrifuged for 10 min (12,000 rpm, Microfuge 16, Beckman Coulter, Brea, CA, USA). Supernatants were analyzed by RP-HPLC on column using a linear gradient of acetonitrile (5–100% over 15 min) with detection at 223 nm. Peptides were quantified by their peak areas relative to the initial peak areas (0 min). All stability tests were performed at least in triplicates. As control samples peptides dissolved only in water under the same conditions were used. To additionally assess the changes in the incubated samples (peptide degradation) mass spectrometry analysis was used. LC-MS experiments were performed using ESI-IT-TOF (Shimadzu, Kyoto, Japan).
* Blood was collected from healthy anonymous donors and EDTA was then used as an anticoagulant. The procedure was approved by the Independent Bioethics Commission for Research of the Medical University of Gdańsk (NKBBN/387/2014).

Data set [7] has as its target T1, human neutrophil elastase (Homo sapiens, UniProt P08246).
T1 construct: purchased Sigma Aldrich
T1 sequence (P08246 30-267): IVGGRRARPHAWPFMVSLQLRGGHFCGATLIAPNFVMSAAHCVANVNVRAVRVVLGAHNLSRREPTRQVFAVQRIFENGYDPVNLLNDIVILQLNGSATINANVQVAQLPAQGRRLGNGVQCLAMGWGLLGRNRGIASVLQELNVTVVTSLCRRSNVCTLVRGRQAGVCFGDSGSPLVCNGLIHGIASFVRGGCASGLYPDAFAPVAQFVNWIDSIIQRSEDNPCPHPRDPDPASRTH
Kind of data set: Incubation with neutrophil elastase (release of active sequence). In kind it is in vitro ADME. The note with it: non-fibrillated peptide 1.0 mM, 0.1 M Tris HCl, 500 mM NaCl, 0.05% Triton X-100, 20 mM CaCl2, pH 7.5; enzyme 150 nM; 30 min, 37 °C; RP-UHPLC (PDA) and LC-MS. Here is the method:
An enzymatic stability study was performed using the human neutrophil elastase enzyme (Sigma Aldrich, St. Louis, MO, USA). The peptides were dissolved in a buffer (with composition: 0.1 M Tris HCl, 500 mM NaCl, 0.05% Triton X-100, 20 mM CaCl2, pH 7.5), to a final concentration 1.0 mM. The fibrils formed in the aggregation process were dissolved in PBS at pH 7.4 to a concentration of 1 mg/mL. The enzyme was added to the peptide/fibril solution to a concentration of 150 nM and incubated for 30 min (peptides) or 60 min (fibrils), at 37 °C, with agitation. A 10% aqueous TFA solution was added to the reaction mixture to stop the digestion. The progress of the reaction was monitored by RP-UHPLC with a PDA (Photo Diode Array) detector on a Kinetex C8 column (2.6 μm, 100 Å 2.6 × 100 mm, Phenomenex, Torrance, CA, USA), at a gradient of 0–50% B for 15 min, and by LC-MS.

The nature of another data set: human plasma. The note with it: 37 °C, up to 24 h.
Data set [8] has as its system 46BR.1N fibroblasts. Briefly: LDH cytotoxicity assay, fibroblasts. The note with it: non-fibrillated peptide 25 µg/mL, 48 h, serum-free DMEM; n = 16. In kind it is cell-based, human. On the procedure:
as §2
Lactate dehydrogenase (LDH) activity in cell culture supernatants (Takara, Japan, cat. No. MK401) was measured to determine the cytotoxicity of the tested compounds, and the XTT assay was used to evaluate their effect on cell proliferation. Both tests were performed as previously described according to manufacturers’ instructions. Briefly, cells were seeded into 96-well plates, at a density of 5000 cells per well, in DMEM supplemented with 10% FBS. After 24 h the medium was exchanged for serum-free DMEM containing appropriate concentrations of the tested compounds. Supernatants for LDH analysis were collected after 48 h of incubation. The XTT assay was performed after 48 and 72 h of incubation. […]

The mark [9] stands for this setting: non-fibrillated peptide, 48 and 72 h, serum-free DMEM, n = 16.
Where [10] appears, read: non-fibrillated peptide, 48 and 72 h.

This note sets out measurements from paper PMC8067766 (International Journal of Molecular Sciences, 2021).

Where a SMILES comes first, the peptide text is derived from it.

Ac-K GHK-GGG-AAPV-GGG-QAGIVV-NH2: the cleaved bond entry in [1] is recorded as “V-G, major, 30 min”.

Regarding `CC[C@H](C)[C@H](NC(=O)CNC(=O)[C@H](C)NC(=O)[C@H](CCC(N)=O)NC(=O)CNC(=O)CNC(=O)CNC(=O)[C@@H](NC(=O)[C@@H]1CCCN1C(=O)[C@H](C)NC(=O)[C@H](C)NC(=O)CNC(=O)CNC(=O)CNC(=O)[C@H](CCCNC(=N)N)NC(=O)[C@H](Cc1ccc(O)cc1)NC(=O)[C@@H](NC(=O)[C@H](CCCCN)NC(=O)[C@H](CC(=O)O)NC(=O)[C@H](CCCNC(=N)N)NC(C)=O)C(C)C)C(C)C)C(=O)N[C@H](C(=O)N[C@H](C(N)=O)C(C)C)C(C)C` [FC-IM] (Ac-RDKVYRGGGAAPVGGGQAGIVV-NH2), in [2], the “fibril thickness (TEM)” value is listed as 10–12 nm. The “increase in proliferation by fibrils compared to control (XTT)” value is listed as “did not stimulate proliferation of either tested cell line” in the data set on HaCaT keratinocytes (fibrillated form, 10 µL of fibrils (50 µg/mL), 48 h, not statistically significant) and “did not stimulate proliferation of either tested cell line” with 46BR.1N fibroblasts [4] (fibrillated form, 10 µL of fibrils (50 µg/mL), 48 h, three independent experiments). Besides, the “increase in proliferation compared to the control (XTT)” value with HaCaT keratinocytes (setting [9]) and with 46BR.1N fibroblasts [4] (setting [9]) was 20–30% throughout. Besides, the “inhibition of proliferation (XTT), in words” value in the data set with HaCaT keratinocytes (setting [10]) is “did not decrease the proliferation of HaCaT keratinocytes”; in the data set with 46BR.1N fibroblasts [4] (setting [10]) it was “Slight inhibition of the proliferation of fibroblasts was seen at a concentration of 25 µg/mL after 72 h incubation”. Besides, in [3], the “time course of ThT fluorescence increase (fibrillization)” value is given as “required at least three days of incubation”. The “secondary structure by CD” value in [5] is recorded as “disordered structure”. Also, the metabolised at 24 h, 1 mg/mL in data set [6] (peak area relative to 0 min, read-out: peptide loss in human plasma relative to the initial concentration) was 7%. In data set [7], the “Degradation Yes/No by human neutrophil elastase” value was “Yes”.

Turning to Ac-RDKVYR GGG-AAPV-GGG-QAGIVV-NH2, the not cleaved in “human plasma” came out at 7% peptide loss after 24 h. Further, in [1], the cleaved bond entry is “V-G, major, 30 min” and the fragment found result was “Ac-RDKVYRGGGAAPVG-COOH”.

With Ac-GHK-GGG-AAPV-GGG-QAGIVV-NH2, in data set [1], the cleaved bond result was “V-G, major, 30 min”.

With `CC[C@H](C)[C@H](NC(=O)CNC(=O)[C@H](C)NC(=O)[C@@H](N)CCC(N)=O)C(=O)N[C@H](C(=O)N[C@H](C(N)=O)C(C)C)C(C)C` [FC] (H-QAGIVV-NH2), the “cytotoxicity (LDH release)” value in the data set on 46BR.1N fibroblasts [8] was “about 5%”. Further, the “inhibition of proliferation (XTT), in words” value in the data set with HaCaT keratinocytes (setting [10]) and in the data set on 46BR.1N fibroblasts [4] (setting [10]) was “Inhibition of the proliferation of both cell lines was not observed” throughout. Further, the remaining at 24 h, 1 mg/mL in data set [6] (rapid precipitation of peptide noted, read-out: peptide remained in solution in human plasma) is 11%.
